What follows are compounds tested against PAK1 (Homo sapiens, UniProt Q13153) (assay: Z'Lyte fluorescence-based (FRET) PAK kinase assay, PAK1). Conditions: Table 1 of Example 29 (own compound numbering); 50 μM ATP.
Type: biochemical
Procedure: (§1) A fluorescence-based assay format is used to determine IC50 values of test compounds in vitro. Purified PAK kinase is incubated with ATP, and a test compound at various concentrations and a substrate peptide containing two fluorophores. In a second step, the reaction mix is incubated with a site-specific protease that cleaves non-phosphorylated bat not phosphorylated substrate peptide, disrupting the FRET signal generated by the two fluorophores in the cleaved peptide (Z′Lyte™ Kinase assay platform; Life Technologies).
(§2) Reagents: 50 mM HEPES, pH 7.5; 0.01% BRIJ-35; 10 nM MgCl1; 1 mM EGTA, 2 uM substrate peptide Ser/Thr20 (proprietary Life Technologies Sequence), PAK enzyme [2.42-30.8 ng for PAK1, 0.29-6 ng for PAK2, 1.5-20 ng for PAK3 and 0.1-0.86 ng for PAK4; actual enzyme amounts depend on lot activity of the enzyme preparation]
(§3) Test compounds are dissolved in DMSO at various concentrations; the final DMSO concentration in the assay reaction is 1%.
(§4) ATP concentration at Kin apparent is used in the assay [50 ┌M ATP for PAK1 assay, 75 ┌M ATP for PAK2 assay, 100 μM ATP for PAK3 assay, 5 μM ATP for PAK4 assay] in a total assay volume of 10 μl. Assay reactions are incubated at room temperature for 1 hr. Following the kinase reaction, 5 μl of 1:256 dilution of development solution A (Life Technologies) is added and the reaction mix is incubated for an additional 1 hr at room temperature.
(§5) Plates are analyzed in a standard fluorescence plate reader (Tecan or equivalent) using an excitation wavelength of 400 nn and emission wavelengths of 445 nm and 520 nm.
(§6) Inhibition of kinase reaction is determined by emission ratio=emission@445 nm/emission@520 nm
as §1, with “non-phosphorylated but” for “non-phosphorylated bat”, “peptide (Z'Lyte™” for “peptide (Z′Lyte™”, “assay platform” for “assay platform;”
as §2, with “mM MgCl2;” for “nM MgCl1;”
as §4, with “at Km” for “at Kin”, “[50 μMATP” for “[50 ┌M ATP”, “75 µM” for “75 ┌M”, “[…]” for “10 μl.”, “kinase reaction.” for “kinase reaction,”, “[…]” for “5 μl”
(§7) Plates are analyzed in a standard fluorescence plate reader (Teem or equivalent) using an excitation wavelength of 400 nm and emission wavelengths of 445 nm and 520 nm.

Chain of PAK1 (Q13153 whole entry): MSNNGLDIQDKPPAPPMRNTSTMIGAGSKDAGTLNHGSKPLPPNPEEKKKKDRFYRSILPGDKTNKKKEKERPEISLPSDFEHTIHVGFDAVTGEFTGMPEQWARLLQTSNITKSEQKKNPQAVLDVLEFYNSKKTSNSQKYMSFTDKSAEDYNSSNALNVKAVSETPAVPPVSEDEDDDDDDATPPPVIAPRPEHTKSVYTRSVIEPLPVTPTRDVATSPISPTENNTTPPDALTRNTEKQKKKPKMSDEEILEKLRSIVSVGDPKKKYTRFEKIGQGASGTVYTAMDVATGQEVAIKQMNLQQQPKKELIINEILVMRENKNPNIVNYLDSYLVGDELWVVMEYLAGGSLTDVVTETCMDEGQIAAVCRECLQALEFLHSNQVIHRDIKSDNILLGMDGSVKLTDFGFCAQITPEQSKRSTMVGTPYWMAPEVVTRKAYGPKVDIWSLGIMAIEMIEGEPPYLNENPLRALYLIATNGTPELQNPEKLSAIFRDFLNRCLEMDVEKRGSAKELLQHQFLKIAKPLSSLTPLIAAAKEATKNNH

Row | Structure (SMILES) | IC50
1 | CN1CCN(c2ccc(Nc3ncc4ccc(=O)n(Cc5c(F)cccc5C(F)(F)F)c4n3)cc2)CC1 [Compound 112] | < 1000 nM
2 | CN1CCN(c2ccc(Nc3ncc4ccc(=O)n(Cc5ccccc5)c4n3)cc2)CC1 [compound 80] | 1000 to 10000 nM

Other lines, results leading:

Row | IC50 | Structure (SMILES)
3 | < 1000 nM | O=c1ccc2cnc(Nc3ccc(N4CCNCC4)c(F)c3)nc2n1Cc1c(Cl)cccc1C1CC1 [Compound 137]
4 | < 1000 nM | CSc1cccc(F)c1Cn1c(=O)ccc2cnc(Nc3ccc(N4CCN(C)CC4)cc3)nc21 [Compound 138]
5 | 1000 to 10000 nM | CN1CCN(c2ccc(Nc3nccc(-c4ccc(O)nc4)n3)cc2)CC1 [Compound 143]
6 | < 1000 nM | Cc1cc(Nc2nccc(-c3ccc(NCCN)nc3)n2)ccc1N1CCN(C)CC1 [Compound 152]
7 | < 1000 nM | O=c1c(-c2ccccc2)cc2cnc(Nc3ccc(N4CCNCC4)cc3)nc2n1Cc1ccccc1C(F)(F)F [Compound 163]
8 | 1000 to 10000 nM | CN1CCN(c2ccc(Nc3ncc4ccc(=O)n(Cc5cccnc5)c4n3)cc2)CC1 [compound 92]
9 | < 1000 nM | CN1CCN(c2ccc(Nc3ncc4ccc(=O)n(Cc5ccccc5C#N)c4n3)cc2)CC1 [compound 94]
10 | < 1000 nM | CN1CCN(c2ccc(Nc3ncc4ccc(=O)n(Cc5ccccc5OC(F)(F)F)c4n3)cc2)CC1 [compound 95]
11 | < 1000 nM | CN1CCN(c2ccc(Nc3ncc4ccc(=O)n(Cc5ccccc5C(F)(F)F)c4n3)cc2)CC1 [compound 96]
12 | < 1000 nM | CN1CCN(c2ccc(Nc3ncc4ccc(=O)n(Cc5ccccc5OC(F)F)c4n3)cc2)CC1 [compound 98]
13 | 1000 to 10000 nM | Cc1cc(F)ccc1Cn1c(=O)ccc2cnc(Nc3ccc(N4CCN(C)CC4)cc3)nc21 [compound 99]
14 | 1000 to 10000 nM | Cc1ccc(C)c(Cn2c(=O)ccc3cnc(Nc4ccc(N5CCN(C)CC5)cc4)nc32)c1 [compound 100]

Same assay, conditions: Table 1 of Example 100; 50 μM ATP

Row | IC50 | Structure (SMILES)
15 | < 1000 nM | CN1CCN(c2ccc(Nc3ncc4ccc(=O)n(C5CCCC5)c4n3)cc2)CC1 [Compound 1]
16 | > 10000 nM | O=c1ccc2cnc(Nc3ccc(N4CCOCC4)cc3)nc2n1C1CCCC1 [Compound 2]
17 | > 10000 nM | CN(C)c1ccc(Nc2ncc3ccc(=O)n(C4CCCC4)c3n2)cc1 [Compound 3]
18 | 1000 to 10000 nM | CN(C)CCNc1ccc(Nc2ncc3ccc(=O)n(C4CCCC4)c3n2)cc1 [Compound 4]
19 | 1000 to 10000 nM | CN1CCN(c2ccc(Nc3ncc4ccc(=O)n(C5CCCc6ccccc65)c4n3)cc2)CC1 (stereo not drawn) [Compound 5]
20 | < 1000 nM | CN1CCN(c2ccc(Nc3ncc4ccc(=O)n(C5CCc6ccccc65)c4n3)cc2)CC1 (stereo not drawn) [Compound 6]
21 | < 1000 nM | O=c1ccc2cnc(Nc3ccc(NC4CCCNC4)cc3)nc2n1Cc1ccccc1C(F)(F)F (stereo not drawn) [Compound 7]

The compounds below were run against PAK2 (Homo sapiens, UniProt Q13177) (assay: Z'Lyte fluorescence-based (FRET) PAK kinase assay, PAK2). Conditions: Table 1 of Example 29 (own compound numbering); 75 µM ATP.
Chain of PAK2 (Q13177 whole entry): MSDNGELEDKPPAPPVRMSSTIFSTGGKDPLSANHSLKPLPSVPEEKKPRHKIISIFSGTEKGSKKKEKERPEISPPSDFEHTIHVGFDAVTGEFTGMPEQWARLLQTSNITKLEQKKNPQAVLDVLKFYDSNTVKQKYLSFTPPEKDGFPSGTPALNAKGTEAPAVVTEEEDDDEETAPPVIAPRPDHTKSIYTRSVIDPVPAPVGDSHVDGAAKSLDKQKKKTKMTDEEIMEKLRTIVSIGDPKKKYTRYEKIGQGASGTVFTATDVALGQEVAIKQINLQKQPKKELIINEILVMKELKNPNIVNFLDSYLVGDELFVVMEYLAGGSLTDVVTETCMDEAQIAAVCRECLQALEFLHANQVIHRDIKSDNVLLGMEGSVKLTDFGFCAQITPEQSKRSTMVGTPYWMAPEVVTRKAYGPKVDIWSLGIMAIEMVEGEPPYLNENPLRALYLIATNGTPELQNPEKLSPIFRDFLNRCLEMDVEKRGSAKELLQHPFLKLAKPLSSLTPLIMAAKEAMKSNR
Type: biochemical
Procedure: as §1, §2, §3, §4, §5, §6
as §1, with “non-phosphorylated but” for “non-phosphorylated bat”, “peptide (Z'Lyte™” for “peptide (Z′Lyte™”, “assay platform” for “assay platform;”
as §2, with “mM MgCl2;” for “nM MgCl1;”
as §4, with “at Km” for “at Kin”, “[50 μMATP” for “[50 ┌M ATP”, “75 µM” for “75 ┌M”, “[…]” for “10 μl.”, “kinase reaction.” for “kinase reaction,”, “[…]” for “5 μl”
as §7

Row | Structure (SMILES) | IC50
22 | CN1CCN(c2ccc(Nc3nccc(-c4ccc(O)nc4)n3)cc2)CC1 [Compound 143] | > 10 µM
23 | CN1CCN(c2ccc(Nc3ncc4ccc(=O)n(Cc5ccccc5)c4n3)cc2)CC1 [compound 80] | 1 to 10 µM

Same assay, conditions: Table 1 of Example 100; 75 μM ATP

Row | IC50 | Structure (SMILES)
24 | 1 to 10 µM | CN1CCN(c2ccc(Nc3ncc4ccc(=O)n(C5CCCC5)c4n3)cc2)CC1 [Compound 1]
25 | > 10 µM | O=c1ccc2cnc(Nc3ccc(N4CCOCC4)cc3)nc2n1C1CCCC1 [Compound 2]
26 | > 10 µM | CN(C)c1ccc(Nc2ncc3ccc(=O)n(C4CCCC4)c3n2)cc1 [Compound 3]
27 | 1 to 10 µM | CN(C)CCNc1ccc(Nc2ncc3ccc(=O)n(C4CCCC4)c3n2)cc1 [Compound 4]
28 | 1 to 10 µM | CN1CCN(c2ccc(Nc3ncc4ccc(=O)n(C5CCCc6ccccc65)c4n3)cc2)CC1 (stereo not drawn) [Compound 5]
29 | 1 to 10 µM | CN1CCN(c2ccc(Nc3ncc4ccc(=O)n(C5CCc6ccccc65)c4n3)cc2)CC1 (stereo not drawn) [Compound 6]
30 | < 1 µM | O=c1ccc2cnc(Nc3ccc(NC4CCCNC4)cc3)nc2n1Cc1ccccc1C(F)(F)F (stereo not drawn) [Compound 7]

These compounds were tested against PAK3 (Homo sapiens, UniProt O75914) (assay: Z'Lyte fluorescence-based (FRET) PAK kinase assay, PAK3). Conditions: Table 1 of Example 29 (own compound numbering); 100 μM ATP.
Chain of PAK3 (O75914 whole entry): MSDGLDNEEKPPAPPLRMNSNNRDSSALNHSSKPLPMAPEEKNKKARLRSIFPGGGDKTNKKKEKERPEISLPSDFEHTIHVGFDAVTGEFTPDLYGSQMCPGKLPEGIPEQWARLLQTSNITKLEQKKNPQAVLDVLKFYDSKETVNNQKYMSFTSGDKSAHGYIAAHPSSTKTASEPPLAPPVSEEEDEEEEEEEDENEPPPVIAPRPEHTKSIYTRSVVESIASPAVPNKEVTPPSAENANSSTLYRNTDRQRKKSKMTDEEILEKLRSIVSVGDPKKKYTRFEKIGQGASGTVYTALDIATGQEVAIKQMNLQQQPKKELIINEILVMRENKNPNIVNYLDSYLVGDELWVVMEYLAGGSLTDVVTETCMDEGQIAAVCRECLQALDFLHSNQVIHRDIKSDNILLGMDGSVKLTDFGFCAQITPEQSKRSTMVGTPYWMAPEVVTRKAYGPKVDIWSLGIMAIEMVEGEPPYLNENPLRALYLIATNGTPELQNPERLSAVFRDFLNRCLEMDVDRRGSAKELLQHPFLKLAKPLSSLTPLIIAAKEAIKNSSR
Type: biochemical
Procedure: as §1, §2, §3, §4, §5, §6
as §1, with “non-phosphorylated but” for “non-phosphorylated bat”, “peptide (Z'Lyte™” for “peptide (Z′Lyte™”, “assay platform” for “assay platform;”
as §2, with “mM MgCl2;” for “nM MgCl1;”
as §4, with “at Km” for “at Kin”, “[50 μMATP” for “[50 ┌M ATP”, “75 µM” for “75 ┌M”, “[…]” for “10 μl.”, “kinase reaction.” for “kinase reaction,”, “[…]” for “5 μl”
as §7

Row | IC50 | Structure (SMILES)
31 | < 1000 nM | CN1CCN(c2ccc(Nc3ncc4ccc(=O)n(Cc5c(F)cccc5C(F)(F)F)c4n3)cc2)CC1 [Compound 112]
32 | < 1000 nM | O=c1ccc2cnc(Nc3ccc(N4CCNCC4)c(F)c3)nc2n1Cc1c(Cl)cccc1C1CC1 [Compound 137]
33 | < 1000 nM | CSc1cccc(F)c1Cn1c(=O)ccc2cnc(Nc3ccc(N4CCN(C)CC4)cc3)nc21 [Compound 138]
34 | 1000 to 10000 nM | Cc1cc(Nc2nccc(-c3ccc(NCCN)nc3)n2)ccc1N1CCN(C)CC1 [Compound 152]
35 | < 1000 nM | O=c1c(-c2ccccc2)cc2cnc(Nc3ccc(N4CCNCC4)cc3)nc2n1Cc1ccccc1C(F)(F)F [Compound 163]

Same assay, conditions: Table 1 of Example 100; 100 μM ATP

Row | IC50 | Structure (SMILES)
36 | 1000 to 10000 nM | CN1CCN(c2ccc(Nc3ncc4ccc(=O)n(C5CCCC5)c4n3)cc2)CC1 [Compound 1]
37 | 1000 to 10000 nM | CN1CCN(c2ccc(Nc3ncc4ccc(=O)n(C5CCCc6ccccc65)c4n3)cc2)CC1 (stereo not drawn) [Compound 5]
38 | 1000 to 10000 nM | CN1CCN(c2ccc(Nc3ncc4ccc(=O)n(C5CCc6ccccc65)c4n3)cc2)CC1 (stereo not drawn) [Compound 6]
39 | < 1000 nM | O=c1ccc2cnc(Nc3ccc(NC4CCCNC4)cc3)nc2n1Cc1ccccc1C(F)(F)F (stereo not drawn) [Compound 7]

Each compound was assayed against PAK4 (Homo sapiens, UniProt O96013) (assay: Z'Lyte fluorescence-based (FRET) PAK kinase assay, PAK4). Conditions: Table 1 of Example 29 (own compound numbering); 5 μM ATP.
Chain of PAK4 (O96013 whole entry): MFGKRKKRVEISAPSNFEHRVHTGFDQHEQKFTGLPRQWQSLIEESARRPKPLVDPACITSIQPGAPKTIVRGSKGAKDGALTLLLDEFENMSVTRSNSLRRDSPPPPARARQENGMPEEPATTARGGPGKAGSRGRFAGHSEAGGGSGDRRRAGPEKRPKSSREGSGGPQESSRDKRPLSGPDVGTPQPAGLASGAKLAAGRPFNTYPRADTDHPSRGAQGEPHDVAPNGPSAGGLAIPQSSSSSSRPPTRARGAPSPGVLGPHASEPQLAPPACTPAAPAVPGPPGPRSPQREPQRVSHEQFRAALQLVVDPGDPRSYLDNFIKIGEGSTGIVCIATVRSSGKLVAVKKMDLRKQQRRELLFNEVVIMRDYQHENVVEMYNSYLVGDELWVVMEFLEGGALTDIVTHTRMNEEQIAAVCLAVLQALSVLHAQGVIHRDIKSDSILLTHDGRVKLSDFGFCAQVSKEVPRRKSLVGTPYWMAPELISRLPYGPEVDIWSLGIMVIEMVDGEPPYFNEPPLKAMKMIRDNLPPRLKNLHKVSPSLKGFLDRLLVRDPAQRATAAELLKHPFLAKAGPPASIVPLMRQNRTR
Type: biochemical
Procedure: as §1, §2, §3, §4, §5, §6
as §1, with “non-phosphorylated but” for “non-phosphorylated bat”, “peptide (Z'Lyte™” for “peptide (Z′Lyte™”, “assay platform” for “assay platform;”
as §2, with “mM MgCl2;” for “nM MgCl1;”
as §4, with “at Km” for “at Kin”, “[50 μMATP” for “[50 ┌M ATP”, “75 µM” for “75 ┌M”, “[…]” for “10 μl.”, “kinase reaction.” for “kinase reaction,”, “[…]” for “5 μl”
as §7

Row | Structure (SMILES) | IC50
40 | CN1CCN(c2ccc(Nc3ncc4ccc(=O)n(Cc5c(F)cccc5C(F)(F)F)c4n3)cc2)CC1 [Compound 112] | < 1000 nM
41 | CN1CCN(c2ccc(Nc3ncc4ccc(=O)n(Cc5ccccc5)c4n3)cc2)CC1 [compound 80] | > 10000 nM

Now from value to compound:

Row | IC50 | Structure (SMILES)
42 | 1000 to 10000 nM | O=c1ccc2cnc(Nc3ccc(N4CCNCC4)c(F)c3)nc2n1Cc1c(Cl)cccc1C1CC1 [Compound 137]
43 | < 1000 nM | CSc1cccc(F)c1Cn1c(=O)ccc2cnc(Nc3ccc(N4CCN(C)CC4)cc3)nc21 [Compound 138]
44 | > 10000 nM | CN1CCN(c2ccc(Nc3nccc(-c4ccc(O)nc4)n3)cc2)CC1 [Compound 143]
45 | < 1000 nM | Cc1cc(Nc2nccc(-c3ccc(NCCN)nc3)n2)ccc1N1CCN(C)CC1 [Compound 152]
46 | 1000 to 10000 nM | O=c1c(-c2ccccc2)cc2cnc(Nc3ccc(N4CCNCC4)cc3)nc2n1Cc1ccccc1C(F)(F)F [Compound 163]
47 | > 10000 nM | CN1CCN(c2ccc(Nc3ncc4ccc(=O)n(Cc5cccnc5)c4n3)cc2)CC1 [compound 92]
48 | 1000 to 10000 nM | CN1CCN(c2ccc(Nc3ncc4ccc(=O)n(Cc5ccccc5C#N)c4n3)cc2)CC1 [compound 94]
49 | 1000 to 10000 nM | CN1CCN(c2ccc(Nc3ncc4ccc(=O)n(Cc5ccccc5OC(F)(F)F)c4n3)cc2)CC1 [compound 95]
50 | < 1000 nM | CN1CCN(c2ccc(Nc3ncc4ccc(=O)n(Cc5ccccc5C(F)(F)F)c4n3)cc2)CC1 [compound 96]
51 | < 1000 nM | CN1CCN(c2ccc(Nc3ncc4ccc(=O)n(Cc5ccccc5OC(F)F)c4n3)cc2)CC1 [compound 98]
52 | 1000 to 10000 nM | Cc1cc(F)ccc1Cn1c(=O)ccc2cnc(Nc3ccc(N4CCN(C)CC4)cc3)nc21 [compound 99]
53 | 1000 to 10000 nM | Cc1ccc(C)c(Cn2c(=O)ccc3cnc(Nc4ccc(N5CCN(C)CC5)cc4)nc32)c1 [compound 100]

Same assay, conditions: Table 1 of Example 100; 5 μM ATP

Row | IC50 | Structure (SMILES)
54 | 1000 to 10000 nM | CN1CCN(c2ccc(Nc3ncc4ccc(=O)n(C5CCCC5)c4n3)cc2)CC1 [Compound 1]
55 | 1000 to 10000 nM | O=c1ccc2cnc(Nc3ccc(N4CCOCC4)cc3)nc2n1C1CCCC1 [Compound 2]
56 | 1000 to 10000 nM | CN(C)c1ccc(Nc2ncc3ccc(=O)n(C4CCCC4)c3n2)cc1 [Compound 3]
57 | 1000 to 10000 nM | CN(C)CCNc1ccc(Nc2ncc3ccc(=O)n(C4CCCC4)c3n2)cc1 [Compound 4]
58 | 1000 to 10000 nM | CN1CCN(c2ccc(Nc3ncc4ccc(=O)n(C5CCCc6ccccc65)c4n3)cc2)CC1 (stereo not drawn) [Compound 5]
59 | 1000 to 10000 nM | CN1CCN(c2ccc(Nc3ncc4ccc(=O)n(C5CCc6ccccc65)c4n3)cc2)CC1 (stereo not drawn) [Compound 6]
60 | < 1000 nM | O=c1ccc2cnc(Nc3ccc(NC4CCCNC4)cc3)nc2n1Cc1ccccc1C(F)(F)F (stereo not drawn) [Compound 7]

Source: patent US20120270844A1, “METHODS FOR TREATING ALZHEIMER'S DISEASE” (aFRAXis, Inc., priority 2009, published 2012)
